Read-outs that look alike come from different tables or passages of the source.

Usually IC50 stands for the point on the concentration scale where inhibition reaches its midpoint.

Test [1] has as its target human TLR7 (Homo sapiens (Human), UniProt Q9NYK1). The test is described as follows: TLR7 inhibition reporter assay (HEK-Blue cells, SEAP reporter, gardiquimod stimulation). It counts as cell-based. A general note: Reporter assays use an easily measured gene product as a stand-in for the process of interest.
Test [2] addresses human TLR8 (Homo sapiens (Human), UniProt Q9NR97). Nature of the test: TLR8 inhibition reporter assay (HEK-Blue cells, SEAP reporter, R848 stimulation).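 Further: compounds tested from 0.05 nM to 50 µM, 22 h at 37 °C, SEAP measured with HEK-Blue Detection, inhibition relative to agonist plus DMSO versus a known inhibitor.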
Description: TLR7/8/9 Inhibition Reporter Assays
Briefly, cells are seeded into Greiner 384 well plates (15000 cells per well for TLR7, 20,000 for TLR8 and 25,000 for TLR9) and then treated with test compounds in DMSO to yield a final dose response concentration range of 0.05 nM-50 μM. […] After a 22 hour incubation at 37° C., 5% CO2, SEAP levels are determined with the addition of HEK-Blue™ Detection reagent (Invivogen), a cell culture medium that allows for detection of SEAP, according to manufacturer's specifications. The percent inhibition is determined as the % reduction in the HEK-Blue signal present in wells treated with agonist plus DMSO alone compared to wells treated with a known inhibitor.
Test [3] addresses human TLR9 (Homo sapiens (Human), UniProt Q9NR96). Nature of the test: TLR9 inhibition reporter assay (HEK-Blue cells, SEAP reporter, ODN2006 stimulation).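 Further: compounds tested over 0.05 nM to 50 µM, 22 h incubation, inhibition taken as SEAP signal drop from agonist plus DMSO wells toward a known inhibitor control.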
Setting [4] is: HEK-Blue cells overexpressing human TLR7, gardiquimod 7.5 μM.
The mark [5] stands for this setting: read-out: TLR8 IC50, HEK-Blue cells overexpressing human TLR8, R848 15.9 μM.
Setting [6] is: read-out: TLR9 IC50, HEK-Blue cells overexpressing human TLR9, ODN2006 5 nM.

Chain of human TLR8 (Q9NR97 27-1041): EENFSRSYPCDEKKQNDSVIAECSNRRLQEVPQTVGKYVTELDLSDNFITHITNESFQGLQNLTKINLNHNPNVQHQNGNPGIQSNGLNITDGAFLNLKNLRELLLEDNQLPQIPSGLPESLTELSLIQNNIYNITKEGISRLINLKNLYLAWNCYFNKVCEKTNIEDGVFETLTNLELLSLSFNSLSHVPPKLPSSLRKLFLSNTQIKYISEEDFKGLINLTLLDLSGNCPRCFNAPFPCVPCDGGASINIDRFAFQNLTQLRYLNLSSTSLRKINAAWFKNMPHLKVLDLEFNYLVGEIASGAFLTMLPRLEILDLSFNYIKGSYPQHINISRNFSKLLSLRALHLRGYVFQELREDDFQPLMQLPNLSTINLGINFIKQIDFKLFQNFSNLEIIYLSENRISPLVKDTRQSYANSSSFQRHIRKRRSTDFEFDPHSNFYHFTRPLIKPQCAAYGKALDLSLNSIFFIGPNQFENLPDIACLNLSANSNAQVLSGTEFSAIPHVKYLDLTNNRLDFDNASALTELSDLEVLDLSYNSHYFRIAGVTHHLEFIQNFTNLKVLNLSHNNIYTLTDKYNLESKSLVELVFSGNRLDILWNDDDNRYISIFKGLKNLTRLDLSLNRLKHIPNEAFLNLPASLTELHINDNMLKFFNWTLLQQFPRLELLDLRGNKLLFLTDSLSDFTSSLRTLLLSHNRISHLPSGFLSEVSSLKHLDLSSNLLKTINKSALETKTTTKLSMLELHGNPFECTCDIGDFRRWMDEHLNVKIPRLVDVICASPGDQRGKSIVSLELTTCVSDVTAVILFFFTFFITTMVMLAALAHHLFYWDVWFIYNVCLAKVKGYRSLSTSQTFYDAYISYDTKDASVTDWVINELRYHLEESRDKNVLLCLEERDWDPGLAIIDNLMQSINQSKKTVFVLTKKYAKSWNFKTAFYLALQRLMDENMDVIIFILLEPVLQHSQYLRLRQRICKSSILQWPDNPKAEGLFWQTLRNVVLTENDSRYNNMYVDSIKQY
Chain of human TLR7 (Q9NYK1 27-1049): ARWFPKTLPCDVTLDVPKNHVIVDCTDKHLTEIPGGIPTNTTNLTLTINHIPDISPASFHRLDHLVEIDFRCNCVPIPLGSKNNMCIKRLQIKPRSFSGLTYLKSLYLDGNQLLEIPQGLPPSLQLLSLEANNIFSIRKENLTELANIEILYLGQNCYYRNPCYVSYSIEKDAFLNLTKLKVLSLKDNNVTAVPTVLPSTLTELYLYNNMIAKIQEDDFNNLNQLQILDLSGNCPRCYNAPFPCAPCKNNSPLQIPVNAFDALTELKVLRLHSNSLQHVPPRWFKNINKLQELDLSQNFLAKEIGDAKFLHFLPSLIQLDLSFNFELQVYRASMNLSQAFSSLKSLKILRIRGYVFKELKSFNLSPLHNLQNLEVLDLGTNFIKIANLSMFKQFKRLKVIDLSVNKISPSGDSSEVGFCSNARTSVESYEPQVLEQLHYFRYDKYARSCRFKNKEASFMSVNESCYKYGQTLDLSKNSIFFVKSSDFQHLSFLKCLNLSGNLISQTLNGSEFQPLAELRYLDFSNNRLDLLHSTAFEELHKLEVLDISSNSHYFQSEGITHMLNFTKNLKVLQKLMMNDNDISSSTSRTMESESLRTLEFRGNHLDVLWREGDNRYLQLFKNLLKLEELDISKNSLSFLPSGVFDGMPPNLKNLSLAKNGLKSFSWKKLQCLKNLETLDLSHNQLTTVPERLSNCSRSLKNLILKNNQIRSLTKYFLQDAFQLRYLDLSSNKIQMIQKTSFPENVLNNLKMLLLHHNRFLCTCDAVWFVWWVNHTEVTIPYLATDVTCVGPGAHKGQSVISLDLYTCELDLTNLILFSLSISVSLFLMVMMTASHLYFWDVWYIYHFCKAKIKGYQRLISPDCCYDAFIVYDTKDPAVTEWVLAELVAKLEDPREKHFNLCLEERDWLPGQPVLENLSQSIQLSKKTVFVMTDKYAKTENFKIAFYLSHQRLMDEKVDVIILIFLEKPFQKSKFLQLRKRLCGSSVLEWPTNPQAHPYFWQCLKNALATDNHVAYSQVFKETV
Chain of human TLR9 (Q9NR96 26-1032): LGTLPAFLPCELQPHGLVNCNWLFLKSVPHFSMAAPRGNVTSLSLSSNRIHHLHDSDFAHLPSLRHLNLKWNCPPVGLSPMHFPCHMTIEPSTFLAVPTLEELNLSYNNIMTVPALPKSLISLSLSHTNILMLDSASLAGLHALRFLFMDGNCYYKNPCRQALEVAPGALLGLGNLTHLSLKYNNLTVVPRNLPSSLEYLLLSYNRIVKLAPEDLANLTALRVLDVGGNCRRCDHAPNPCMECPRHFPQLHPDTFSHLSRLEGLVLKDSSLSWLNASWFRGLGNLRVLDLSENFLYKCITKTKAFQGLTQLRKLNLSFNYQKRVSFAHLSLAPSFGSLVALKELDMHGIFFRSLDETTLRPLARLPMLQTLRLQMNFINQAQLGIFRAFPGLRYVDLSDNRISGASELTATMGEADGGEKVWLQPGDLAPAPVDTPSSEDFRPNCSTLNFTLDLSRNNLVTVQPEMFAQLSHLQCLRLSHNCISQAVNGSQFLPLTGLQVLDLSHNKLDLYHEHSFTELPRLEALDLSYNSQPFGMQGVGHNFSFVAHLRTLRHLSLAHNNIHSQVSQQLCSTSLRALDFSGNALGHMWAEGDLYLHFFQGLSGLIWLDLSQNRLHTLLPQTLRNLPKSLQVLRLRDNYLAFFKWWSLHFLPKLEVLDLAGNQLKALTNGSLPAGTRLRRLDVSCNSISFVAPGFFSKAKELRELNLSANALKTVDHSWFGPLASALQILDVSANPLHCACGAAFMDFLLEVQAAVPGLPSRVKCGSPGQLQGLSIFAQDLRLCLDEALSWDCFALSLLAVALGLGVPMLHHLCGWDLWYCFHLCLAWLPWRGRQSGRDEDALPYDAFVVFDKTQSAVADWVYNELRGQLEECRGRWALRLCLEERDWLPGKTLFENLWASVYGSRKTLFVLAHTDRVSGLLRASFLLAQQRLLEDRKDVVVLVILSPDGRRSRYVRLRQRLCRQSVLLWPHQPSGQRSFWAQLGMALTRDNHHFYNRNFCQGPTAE

In the case of `Cc1cc(-c2[nH]c3ccc(C4CCN(CC(=O)N5CCOC[C@H]5CO)CC4)cc3c2C(C)C)cc(C)n1` [Example 304, (R)-2-(4-(2-(2,6-dimethylpyridin-4-yl)-3-isopropyl-1H-indol-5-yl)piperidin-1-yl)-1-(3-(hydroxymethyl)morpholino)ethan-1-one], the results for the 50% inhibitory concentration (IC50) in test [1] (setting [4]), in test [2] (setting [5]) and in test [3] (setting [6]) were 10.3 nM, 42.6 nM and 441 nM, respectively.

With `Cc1cc(-c2[nH]c3ccc(C4CCNCC4)cc3c2C(C)C)c(Br)c(C)n1` [Example 40, 2-(3-bromo-2,6-dimethylpyridin-4-yl)-3-isopropyl-5-(piperidin-4-yl)-1H-indole], the half-inhibitory concentration (IC50) in test [1] (setting [4]) worked out at 16.5 nM; in test [2] (setting [5]), 4.1 nM; in test [3] (setting [6]), 1480 nM.

For the molecule `Cc1nccc(-c2[nH]c3ccc(C4CCN(Cc5ncn(C)n5)CC4)cc3c2C(C)C)c1F` [Example 732, 2-(3-fluoro-2-methylpyridin-4-yl)-3-isopropyl-5-(1-((1-methyl-1H-1,2,4-triazol-3-yl)methyl)piperidin-4-yl)-1H-indole], the figures for the IC50 in test [1] (setting [4]), in test [2] (setting [5]) and in test [3] (setting [6]) were 22.5 nM, 10.3 nM and 10100 nM, respectively.

As to `Cc1cc(-c2[nH]c3ccc(C4CCN(C(=O)CN(C)CC(F)F)CC4)cc3c2C(C)C)cc(C)n1` [Example 422, 2-((2,2-difluoroethyl)(methyl)amino)-1-(4-(2-(2,6-dimethylpyridin-4-yl)-3-isopropyl-1H-indol-5-yl)piperidin-1-yl) ethan-1-one], the results for the 50% inhibitory concentration (IC50) in test [1] (setting [4]), in test [2] (setting [5]) and in test [3] (setting [6]) were 5.5 nM, 73.4 nM and 41300 nM, respectively.

Turning to `Cc1cc(-c2[nH]c3ccc(C4CCN(C(=O)CN5CCC(F)CC5)CC4)cc3c2C(C)C)cc(C)n1` [Example 388, 1-(4-(2-(2,6-dimethylpyridin-4-yl)-3-isopropyl-1H-indol-5-yl)piperidin-1-yl)-2-(4-fluoropiperidin-1-yl)ethan-1-one], the results for the 50% inhibitory concentration (IC50) in test [1] (setting [4]), in test [2] (setting [5]) and in test [3] (setting [6]) were 4.3 nM, 20.9 nM and 831 nM, respectively.

In the case of `Cc1cc(-c2[nH]c3ccc(C4CCN(C(=O)CN(C)CCC5(O)CCCC5)CC4)cc3c2C(C)C)cc(C)n1` [Example 408, 1-(4-(2-(2,6-dimethylpyridin-4-yl)-3-isopropyl-1H-indol-5-yl)piperidin-1-yl)-2-((2-(1-hydroxycyclopentyl)ethyl)(methyl)amino)ethan-1-one], the IC50 in test [1] (setting [4]) was found to be 7.6 nM; in test [2] (setting [5]) it was 72.5 nM; in test [3] (setting [6]) it was 846 nM.

In the case of `COc1cc(-c2[nH]c3ccc(C4CCN(C5CCN(CC6CC6)CC5)CC4)cc3c2C(C)C)ccn1` [Example 796, 5-(1′-(cyclopropylmethyl)-[1,4′-bipiperidin]-4-yl)-3-isopropyl-2-(2-methoxypyridin-4-yl)-1H-indole], the IC50 in test [1] (setting [4]) worked out at 154 nM; in test [2] (setting [5]), 13.9 nM; in test [3] (setting [6]) it was 563 nM.

In the case of `Cc1cc(-c2[nH]c3ccc(C4CCN(C(=O)CN5CCOC5=O)CC4)cc3c2C(C)C)cc(C)n1` [Example 164, 3-(2-(4-(2-(2,6-dimethylpyridin-4-yl)-3-isopropyl-1H-indol-5-yl)piperidin-1-yl)-2-oxoethyl) oxazolidin-2-one], the half-maximal inhibitory concentration (IC50) in test [1] (setting [4]) stood at 4.6 nM; in test [2] (setting [5]) it was 39.7 nM; in test [3] (setting [6]) it was 14200 nM.

With `CC(C)c1c(-c2cc(C3CC3)ncc2F)[nH]c2ccc(C3CCNCC3)cc12` [Example 481, 2-(2-cyclopropyl-5-fluoropyridin-4-yl)-3-isopropyl-5-(piperidin-4-yl)-1H-indole], the half-maximal inhibitory concentration (IC50) was 16 nM in test [1] (setting [4]), 95.4 nM in test [2] (setting [5]) and 677 nM in test [3] (setting [6]).

As to `Cc1cc(-c2[nH]c3ccc(C4CCN(Cc5cnc(C)[nH]5)CC4)cc3c2C(C)C)ccn1` [Example 821, 3-isopropyl-5-(1-((2-methyl-1H-imidazol-5-yl)methyl)piperidin-4-yl)-2-(2-methylpyridin-4-yl)-1H-indole], the IC50 was 36.3 nM in test [1] (HEK-Blue cells, gardiquimod 7.5 μM); 4.8 nM in test [2] (read-out: TLR8 IC50, HEK-Blue cells, R848 15.9 μM); 192 nM in test [3] (read-out: TLR9 IC50, HEK-Blue cells, ODN2006 5 nM).

As to `CCc1c(-c2ccnc(NC(C)=O)c2)[nH]c2ccc(C3CCNCC3)cc12` [Example 68, N-(4-(3-ethyl-5-(piperidin-4-yl)-1H-indol-2-yl)pyridin-2-yl)acetamide], the values for the IC50 in test [1] (setting [4]), in test [2] (setting [5]) and in test [3] (setting [6]) were 4190 nM, 1030 nM and 1030 nM, respectively.

`Cc1cc(-c2[nH]c3ccc(C4CCN(C5CCCOC5)CC4)cc3c2C(C)C)c(F)cn1` (stereo not drawn) [Example 727, 2-(5-fluoro-2-methylpyridin-4-yl)-3-isopropyl-5-(1-(tetrahydro-2H-pyran-3-yl)piperidin-4-yl)-1H-indole]: the IC50 was found to be 7.3 nM in test [1] (setting [4]), 3.5 nM in test [2] (setting [5]) and 2920 nM in test [3] (setting [6]).

As to `Cc1cnccc1-c1[nH]c2ccc(C3CCNCC3)cc2c1C(C)C` [Example 23, 3-isopropyl-2-(3-methylpyridin-4-yl)-5-(piperidin-4-yl)-1H-indole], the IC50 in test [1] (setting [4]) came out at 97 nM; in test [2] (setting [5]), 32.3 nM; in test [3] (setting [6]), 8790 nM.

Consider `Cc1nccc(-c2[nH]c3ccc(C4CCNCC4)cc3c2C(C)C)c1Cl` [Example 44, 2-(3-chloro-2-methylpyridin-4-yl)-3-isopropyl-5-(piperidin-4-yl)-1H-indole], for which the half-inhibitory concentration (IC50) was 13.9 nM in test [1] (setting [4]), 14.4 nM in test [2] (setting [5]) and 1640 nM in test [3] (setting [6]).

As for `CCc1c(-c2ccnc(-c3noc(N)n3)c2)[nH]c2ccc(C3CCNCC3)cc12` [Example 65, 3-(4-(3-ethyl-5-(piperidin-4-yl)-1H-indol-2-yl)pyridin-2-yl)-1,2,4-oxadiazol-5-amine], the results for the concentration for half-maximal inhibition (IC50) in test [1] (setting [4]), in test [2] (setting [5]) and in test [3] (setting [6]) were 2180 nM, 550 nM and 1630 nM, respectively.

Take `Cc1cc(-c2[nH]c3ccc(C4CCN(Cc5ncon5)CC4)cc3c2C(C)C)c(F)cn1` [Example 735, 3-((4-(2-(5-fluoro-2-methylpyridin-4-yl)-3-isopropyl-1H-indol-5-yl)piperidin-1-yl)methyl)-1,2,4-oxadiazole]: the results for the IC50 in test [1] (setting [4]), in test [2] (setting [5]) and in test [3] (setting [6]) were 22.3 nM, 50 nM and greater than 50000 nM, respectively.

On to `CC(C)c1c(-c2ccnc(C(=O)Nc3nccs3)c2)[nH]c2ccc(C3CCNCC3)cc12` [Example 477, 4-(3-isopropyl-5-(piperidin-4-yl)-1H-indol-2-yl)-N-(thiazol-2-yl) picolinamide], for which the IC50 in test [1] (setting [4]) was found to be 3080 nM; in test [2] (setting [5]) it was 1110 nM; in test [3] (setting [6]), 2190 nM.

Turning to `CCc1c(-c2ccnc(C)c2)[nH]c2ccc(C3CCN(C(=O)[C@@H]4CCCN4)CC3)cc12` [Example 629], the concentration for half-maximal inhibition (IC50) in test [1] (setting [4]) stood at 60.4 nM; in test [2] (TLR8 IC50, HEK-Blue cells overexpressing human TLR8, R848 15.9 μM) it was 18.7 nM; in test [3] (TLR9 IC50, HEK-Blue cells overexpressing human TLR9, ODN2006 5 nM), 482 nM.

With `Cc1cc(-c2[nH]c3ccc(C4CCN(CC(=O)NC5CCOCC5)CC4)cc3c2C(C)C)cc(C)n1` [Example 280, 2-(4-(2-(2,6-dimethylpyridin-4-yl)-3-isopropyl-1H-indol-5-yl)piperidin-1-yl)-N-(tetrahydro-2H-pyran-4-yl)acetamide], the 50% inhibitory concentration (IC50) in test [1] (setting [4]) stood at 3 nM; in test [2] (setting [5]) it was 6.1 nM; in test [3] (setting [6]), 350 nM.

For `Cc1cc(-c2[nH]c3ccc(C4CCN(CC(=O)N5CC(F)(F)C5)CC4)cc3c2C(C)C)cc(C)n1` [Example 215, 1-(3,3-difluoroazetidin-1-yl)-2-(4-(2-(2,6-dimethylpyridin-4-yl)-3-isopropyl-1H-indol-5-yl)piperidin-1-yl)ethan-1-one], the values for the IC50 in test [1] (setting [4]), in test [2] (setting [5]) and in test [3] (setting [6]) were 4.9 nM, 6 nM and 680 nM, respectively.

The values are drawn from patent US10660877B2 (BRISTOL-MYERS SQUIBB COMPANY, priority 2016, dated 2020).
